The values that follow come from patent US20060004197A1, “Sulfonamide-based compounds as protein tyrosine kinase inhibitors” (priority 2004, published 2006).

In general, IC50 refers to the concentration needed to halve the response being measured.

What all share (type): biochemical
One assay has as its target T1, Recombinant human Src (Homo sapiens, UniProt P12931).
T1 construct: made in house; host or cells: baculovirus-insect cell system
Kind of assay: Src tyrosine kinase activity, poly E4Y / 32P-ATP phosphorylation assay.

The target of the next assay is Recombinant Csk (Homo sapiens, UniProt P41240). Briefly: Csk tyrosine kinase activity, poly E4Y / 32P-ATP phosphorylation assay.
The target of the next assay is FGF receptor (FGFr). Briefly: FGFr tyrosine kinase activity, poly E4Y / 32P-ATP phosphorylation assay.
The mark [1] stands for this setting: poly E4Y / 32P-ATP, Formula IV compounds.
Setting [2] is: Table 3, Formula II compounds, NI = no inhibition at 100 μg/mL.
The mark [3] stands for this setting: Table 2, Formula I compounds, NI = no inhibition at 100 μg/mL.
The mark [4] stands for this setting: Table 4, Formula III compounds, NI = no inhibition at 100 μg/mL.

T1 sequence (P12931 whole entry): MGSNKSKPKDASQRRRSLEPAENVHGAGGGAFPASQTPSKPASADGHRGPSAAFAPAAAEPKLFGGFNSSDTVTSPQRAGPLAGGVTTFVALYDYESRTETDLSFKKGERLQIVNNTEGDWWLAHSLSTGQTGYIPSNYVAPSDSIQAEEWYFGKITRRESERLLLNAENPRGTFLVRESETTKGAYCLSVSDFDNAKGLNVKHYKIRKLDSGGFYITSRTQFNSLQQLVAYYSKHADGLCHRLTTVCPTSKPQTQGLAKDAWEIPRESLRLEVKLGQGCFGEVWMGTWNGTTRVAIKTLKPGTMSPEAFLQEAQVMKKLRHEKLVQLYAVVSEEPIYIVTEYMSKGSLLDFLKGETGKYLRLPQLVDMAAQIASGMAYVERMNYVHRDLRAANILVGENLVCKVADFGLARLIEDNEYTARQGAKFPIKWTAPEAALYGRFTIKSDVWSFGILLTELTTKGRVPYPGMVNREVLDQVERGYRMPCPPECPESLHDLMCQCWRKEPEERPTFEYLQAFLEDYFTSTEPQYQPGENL
Chain of Recombinant Csk (P41240 whole entry, species assumed): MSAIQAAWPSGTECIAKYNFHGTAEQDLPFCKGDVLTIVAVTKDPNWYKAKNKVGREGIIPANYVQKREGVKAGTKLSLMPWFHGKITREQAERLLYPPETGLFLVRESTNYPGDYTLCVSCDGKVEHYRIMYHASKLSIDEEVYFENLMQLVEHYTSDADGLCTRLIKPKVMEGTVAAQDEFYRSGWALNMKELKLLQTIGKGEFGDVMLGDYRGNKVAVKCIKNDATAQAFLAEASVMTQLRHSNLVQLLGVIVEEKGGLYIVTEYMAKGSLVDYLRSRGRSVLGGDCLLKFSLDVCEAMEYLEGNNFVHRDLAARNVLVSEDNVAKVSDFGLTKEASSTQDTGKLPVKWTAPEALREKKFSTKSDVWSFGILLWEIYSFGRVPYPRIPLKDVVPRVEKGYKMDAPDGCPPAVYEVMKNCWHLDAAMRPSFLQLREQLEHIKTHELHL

With `COc1ccc(Oc2ccc(NS(=O)(=O)c3ccc(C)cc3)c(OC)c2)cc1` [Compound 60, N-[2-methoxy-4-(4-methoxy-phenoxy)-phenyl]-4-toluenesulfonamide], the IC50 is 129 µM at Recombinant human Src (setting [1]) and greater than 250 µM on Recombinant Csk (setting [1]). Also, the “IC50 (μM) FGFr” value on FGF receptor (FGFr) (setting [1]) is on record as “NI (NI = no inhibition at 100 μg/mL)”.
Consider `COc1ccc(Oc2ccc(NS(=O)(=O)c3ccc(C)cc3)c(OCC(O)CO)c2)cc1` (stereo not drawn) [Compound 64, N-[2-(2,3-dihydroxy-propoxy)-4-(4-methoxy-phenoxy)-phenyl]-4-toluenesulfonamide], for which the half-inhibitory concentration (IC50) at Recombinant human Src (setting [1]) was 189 µM; on Recombinant Csk (setting [1]), greater than 218 µM. Moreover, the “IC50 (μM) FGFr” value against FGF receptor (FGFr) (setting [1]) is “NI (NI = no inhibition at 100 μg/mL)”.
As for `COc1ccc(Oc2ccc(NS(=O)(=O)Cc3ccccc3)c(NS(=O)(=O)Cc3ccccc3)c2)cc1` [Compound 12g, N-[4-(4-methoxy-phenoxy)-2-phenylmethanesulfonylamino-phenyl]-C-phenyl-methanesulfonamide], the IC50 was found to be 35 µM at Recombinant human Src (setting [2]), 102 µM on Recombinant Csk (setting [2]) and 70 µM on FGF receptor (FGFr) (setting [2]).
With `Cc1ccc(S(=O)(=O)Nc2cc(Sc3ccc(F)cc3)c([N+](=O)[O-])cc2NS(=O)(=O)c2ccc(C)cc2)cc1` [Compound 4h, N-[4-(4-fluoro-phenylsulfanyl)-5-nitro-2-(4-toluenesulfonylamino)-phenyl]-4-toluenesulfonamide], the IC50 at Recombinant human Src (setting [3]) came out at 1.8 µM; at Recombinant Csk (setting [3]), 8.6 µM; against FGF receptor (FGFr) (setting [3]), 7.8 µM.
For `Cc1ccc(S(=O)(=O)Nc2cc(Sc3ccc(O)cc3)c([N+](=O)[O-])cc2NS(=O)(=O)c2ccc(C)cc2)cc1` [Compound 4d, N-[4-(4-hydroxy-phenylsulfanyl)-5-nitro-2-(4-toluenesulfonylamino)-phenyl]-4-toluenesulfonamide], the half-inhibitory concentration (IC50) at Recombinant human Src (setting [3]) came to 5.5 µM; on Recombinant Csk (setting [3]), 23.9 µM; against FGF receptor (FGFr) (setting [3]) it was 23.9 µM.
As for `COc1ccc(Oc2ccc(NS(=O)(=O)c3ccc(OC)c(OC)c3)c(NS(=O)(=O)c3ccc(OC)c(OC)c3)c2)cc1` [Compound 12m, N-[2-(3,4-dimethoxy-benzenesulfonylamino)-4-(4-methoxy-phenoxy)-phenyl]-3,4-dimethoxy-benzenesulfonamide], the IC50 at Recombinant human Src (setting [2]) was 54 µM; on Recombinant Csk (setting [2]), greater than 159 µM. For the same compound, the “IC50 (μM) FGFr” value against FGF receptor (FGFr) (setting [2]) is reported as “NI (NI = no inhibition at 100 μg/mL)”.
Consider `Cc1ccc(S(=O)(=O)Nc2cc(Br)c(Br)cc2NS(=O)(=O)c2ccc(C)cc2)cc1` [Compound 38a, N-[4,5-dibromo-2-(4-toluenesulfonylamino)-phenyl]-4-toluenesulfonamide], for which the IC50 on Recombinant human Src (setting [4]) is 31 µM; at Recombinant Csk (setting [4]), greater than 174 µM; against FGF receptor (FGFr) (setting [4]), 110 µM.
Consider `Cc1ccc(S(=O)(=O)N(C)c2cc(Sc3ccc(Cl)cc3)c([N+](=O)[O-])cc2N(C)S(=O)(=O)c2ccc(C)cc2)cc1` [Compound 53, N-[4-(4-chloro-phenylsulfanyl)-5-nitro-2-(4-toluenesulfonyl-methyl-amino)-phenyl]-N-methyl-4-toluenesulfonamide], for which the values for the IC50 on Recombinant human Src (setting [1]), at Recombinant Csk (setting [1]) and against FGF receptor (FGFr) (setting [1]) were 388 µM, 261 µM and 254 µM, respectively.
`Cc1ccc(C(=O)Nc2ccc(Sc3ccc(Cl)cc3)cc2NC(=O)c2ccc(C)cc2)cc1` [Compound 52, N-[4-(4-chloro-phenylsulfanyl)-2-(4-toluoylamino)-phenyl]-4-toluamide]: the IC50 was 51 µM at Recombinant human Src (setting [1]) and greater than 205 µM on Recombinant Csk (setting [1]). Besides, the “IC50 (μM) FGFr” value against FGF receptor (FGFr) (setting [1]) is “NI (NI = no inhibition at 100 μg/mL)”.
In the case of `Cc1ccc(Sc2cc(NS(=O)(=O)c3ccc(C)cc3)c(NS(=O)(=O)c3ccc(C)cc3)cc2[N+](=O)[O-])cc1` [Compound 4i, N-[5-nitro-2-(4-toluenesulfonylamino)-4-(p-tolylsulfanyl)-phenyl]-4-toluenesulfonamide], the IC50 was determined as 1.7 µM at Recombinant human Src (setting [3]), 10.3 µM at Recombinant Csk (setting [3]) and 5.1 µM on FGF receptor (FGFr) (setting [3]).
Take `COc1ccc(Oc2ccc(NS(=O)(=O)c3ccc(C(C)C)cc3)c(NS(=O)(=O)c3ccc(C(C)C)cc3)c2)cc1` [Compound 12b, 4-isopropyl-N-[2-(4-isopropyl-benzenesulfonylamino)-4-(4-methoxy-phenoxy)-phenyl]-benzenesulfonamide]: the concentration for half-maximal inhibition (IC50) on Recombinant human Src (setting [2]) is 18.5 µM; at Recombinant Csk (setting [2]) it was greater than 168 µM; on FGF receptor (FGFr) (setting [2]), 45 µM.
Regarding `Cc1ccc(S(=O)(=O)Nc2ccc(Sc3ccc(Cl)cc3)c([N+](=O)[O-])c2)cc1` [Compound 69, N-[4-(4-chloro-phenylsulfanyl)-3-nitro-phenyl]-4-toluenesulfonamide], the IC50 on Recombinant human Src (setting [1]) is 1970 µM; on Recombinant Csk (setting [1]), 986 µM. The “IC50 (μM) FGFr” value at FGF receptor (FGFr) (setting [1]) was “NI (NI = no inhibition at 100 μg/mL)”.
`Cc1ccc(S(=O)(=O)Nc2cc(Sc3ccccc3C)c([N+](=O)[O-])cc2NS(=O)(=O)c2ccc(C)cc2)cc1` [Compound 4j, N-[5-nitro-2-(4-toluenesulfonylamino)-4-(o-tolylsulfanyl)-phenyl]-4-toluenesulfonamide]: the IC50 on Recombinant human Src (setting [3]) came out at 1.7 µM; on Recombinant Csk (setting [3]) it was 12 µM; on FGF receptor (FGFr) (setting [3]) it was 8.6 µM.
For `CCc1ccc(S(=O)(=O)Nc2ccc(Oc3ccc(OC)cc3)cc2NS(=O)(=O)c2ccc(CC)cc2)cc1` [Compound 12a, 4-ethyl-N-[2-(4-ethyl-benzenesulfonylamino)-4-(4-methoxy-phenoxy)-phenyl]-benzenesulfonamide], the IC50 is 23 µM on Recombinant human Src (setting [2]), greater than 176 µM at Recombinant Csk (setting [2]) and 44 µM on FGF receptor (FGFr) (setting [2]).
As for `Cc1ccc(C(=O)Nc2cc(Sc3ccc(Cl)cc3)c([N+](=O)[O-])cc2NC(=O)c2ccc(C)cc2)cc1` [Compound 51, N-[4-(4-chloro-phenylsulfanyl)-5-nitro-2-(4-toluoylamino)-phenyl]-4-toluamide], the half-maximal inhibitory concentration (IC50) stood at 153 µM on Recombinant human Src (setting [1]), 51 µM on Recombinant Csk (setting [1]) and 40 µM against FGF receptor (FGFr) (setting [1]).
Regarding `Cc1ccc(S(=O)(=O)Nc2ccc(N3CCOCC3)cc2NS(=O)(=O)c2ccc(C)cc2)cc1` [Compound 17f, N-[4-(morpholin-4-yl)-2-(4-toluenesulfonylamino)-phenyl]-4-toluenesulfonamide], the IC50 at Recombinant human Src (setting [2]) is 38 µM; at Recombinant Csk (setting [2]), greater than 199 µM; at FGF receptor (FGFr) (setting [2]) it was 50 µM.
In the same order, the values of `COc1ccc(Sc2ccc(NS(=O)(=O)c3ccc(C)cc3)c(NS(=O)(=O)c3ccc(C)cc3)c2)cc1` [Compound 12gg, N-[5-(4-methoxy-phenylsulfanyl)-2-(4-toluenesulfonylamino)-phenyl]-4-toluenesulfonamide] are 16 µM, greater than 180 µM and 17 µM.
Consider `COc1ccc(Sc2cc(NS(=O)(=O)c3ccc(C)cc3)c(NS(=O)(=O)c3ccc(C)cc3)cc2[N+](=O)[O-])cc1` [Compound 4a, N-[4-(4-methoxy-phenylsulfanyl)-5-nitro-2-(4-toluenesulfonylamino)-phenyl]-4-toluenesulfonamide], for which the half-maximal inhibitory concentration (IC50) on Recombinant human Src (setting [3]) stood at 3.4 µM; on Recombinant Csk (setting [3]) it was 10.8 µM; against FGF receptor (FGFr) (setting [3]), 5.8 µM.
For `Cc1ccc(S(=O)(=O)Nc2cc(Sc3ccc(Cl)cc3)c([N+](=O)[O-])cc2NS(=O)(=O)c2ccc(C)cc2)cc1` [Compound 4e, N-[4-(4-chloro-phenylsulfanyl)-5-nitro-2-(4-toluenesulfonylamino)-phenyl]-4-toluenesulfonamide] the same measures were 8 µM, 23 µM and 1.7 µM.
In the same order, the values of `Cc1ccc(S(=O)(=O)Nc2cc(Sc3ccccc3Cl)c([N+](=O)[O-])cc2NS(=O)(=O)c2ccc(C)cc2)cc1` [Compound 4f, N-[4-(2-chloro-phenylsulfanyl)-5-nitro-2-(4-toluenesulfonylamino)-phenyl]-4-toluenesulfonamide] are 2.5 µM, 10.8 µM and 10.8 µM.
With `COc1cccc(Sc2cc(NS(=O)(=O)c3ccc(C)cc3)c(NS(=O)(=O)c3ccc(C)cc3)cc2[N+](=O)[O-])c1` [Compound 4c, N-[4-(3-methoxy-phenylsulfanyl)-5-nitro-2-(4-toluenesulfonylamino)-phenyl]-4-toluenesulfonamide], the IC50 at Recombinant human Src (setting [3]) was determined as 3.5 µM; at Recombinant Csk (setting [3]) it was 8.3 µM; against FGF receptor (FGFr) (setting [3]) it was 7.5 µM.
`Cc1ccc(S(=O)(=O)Nc2ccc(Oc3cccc(CC(=O)O)c3)cc2NS(=O)(=O)c2ccc(C)cc2)cc1` [Compound 12y, {3-[3,4-bis(4-toluenesulfonylamino)-phenoxy]-phenyl}-acetic acid]: the figures for the concentration for half-maximal inhibition (IC50) on Recombinant human Src (setting [2]), at Recombinant Csk (setting [2]) and at FGF receptor (FGFr) (setting [2]) were 11 µM, 104 µM and 26 µM, respectively.
In the case of `COc1ccc(Oc2ccc(NS(=O)(=O)c3ccc(C)cc3)c(C(=O)O)c2)cc1` [Compound 68, 5-(4-methoxy-phenoxy)-2-(4-toluenesulfonylamino)-benzoic acid], the concentration for half-maximal inhibition (IC50) on Recombinant human Src (setting [1]) is 133 µM; at Recombinant Csk (setting [1]) it was 303 µM. Moreover, the “IC50 (μM) FGFr” value against FGF receptor (FGFr) (setting [1]) is on record as “NI (NI = no inhibition at 100 μg/mL)”.
For `COc1ccc(Oc2ccc(N(C)S(=O)(=O)c3ccc(C)cc3)c(OC)c2)cc1` [Compound 61, N-[2-methoxy-4-(4-methoxy-phenoxy)-phenyl]-N-methyl-4-toluenesulfonamide] the same measures were 177 µM, greater than 242 µM and “NI (NI = no inhibition at 100 μg/mL)”.
With `COc1ccc(Oc2ccc(NS(=O)(=O)c3ccc(F)cc3)c(NS(=O)(=O)c3ccc(F)cc3)c2)cc1` [Compound 12d, 4-fluoro-N-[2-(4-fluoro-benzenesulfonylamino)-4-(4-methoxy-phenoxy)-phenyl]-benzenesulfonamide], the IC50 on Recombinant human Src (setting [2]) was determined as 24 µM; on Recombinant Csk (setting [2]), 73 µM; at FGF receptor (FGFr) (setting [2]), 35 µM.
As to `Cc1ccc(S(=O)(=O)Nc2cc(Sc3ccccc3)c([N+](=O)[O-])cc2NS(=O)(=O)c2ccc(C)cc2)cc1` [Compound 4o, N-[5-nitro-4-phenylsulfanyl-2-(4-toluenesulfonylamino)-phenyl]-4-toluenesulfonamide], the IC50 was 1.3 µM at Recombinant human Src (setting [3]), 5.7 µM on Recombinant Csk (setting [3]) and 1.8 µM on FGF receptor (FGFr) (setting [3]).
